Source: patent US7435820B2, “Substituted tetrahydro-1H-pyrazolo [3,4-c]pyridines compositions comprising them, and use” (Aventis Pharma S.A., priority 2003, dated 2008)
Read-outs that look alike come from different tables or passages of the source.

Key:
human Tie2 = target: T1, human Tie2 (Homo sapiens, UniProt Q02763); assay: Tie2 kinase inhibition: phosphorylation of GST-PLC (SH2-SH3 fragments) by GST-Tie2, 33P-ATP flashplate; type: biochemical; conditions: for Tie2 % Inhib at 10 μM (FRX) Assay 1: Assay 1, 10 µM; for Tie2 % Inhib at 10 μM (FRX) Assay 2: Assay 2, 10 µM
T1 construct: human Tie2 corresponding to amino acids 776-1124 of the intracellular domain was generated by PCR; made in house; host or cells: baculovirus expression system (vector pFastBacGT)
T1 sequence (Q02763 776-1124): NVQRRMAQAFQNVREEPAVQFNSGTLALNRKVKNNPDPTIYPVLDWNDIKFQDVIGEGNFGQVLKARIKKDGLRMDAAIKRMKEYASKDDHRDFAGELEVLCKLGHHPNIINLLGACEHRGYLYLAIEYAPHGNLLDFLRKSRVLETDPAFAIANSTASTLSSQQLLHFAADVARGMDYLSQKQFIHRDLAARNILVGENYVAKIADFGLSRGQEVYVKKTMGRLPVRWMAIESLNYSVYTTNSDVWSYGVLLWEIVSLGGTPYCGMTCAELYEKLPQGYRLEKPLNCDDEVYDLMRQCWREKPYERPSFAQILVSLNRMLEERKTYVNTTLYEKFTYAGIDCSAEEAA
Description: The coding sequence of human Tie2 corresponding to amino acids 776-1124 of the intracellular domain was generated by PCR using the cDNA isolated from human placenta as model. This sequence was introduced into a baculovirus expression vector pFastBacGT in the form of a GST fusion protein.
The inhibitory effect of the molecules is determined in an assay for phosphorylation of PLC by Tie2 in the presence of GST-Tie2 purified to approximately 80% homogeneity. The substrate is made up of the SH2-SH3 fragments of PLC, the latter being expressed in the form of a GST fusion protein.
The kinase activity of Tie2 is measured in a 20 mM MOPS buffer, pH 7.2, containing 10 mM MgCl2, 10 mM MnCl2, 1 mM DTT and 10 mM of glycerophosphate. A reaction mixture made up of 70 μl of kinase buffer containing 100 ng of GST-Tie2 enzyme per well is placed in a flashplate 96-well plate kept on ice. 10 μl of the molecule to be tested, diluted in DMSO, at a concentration of at most 10% are then added. For a given concentration, each measurement is carried out in quadruplicate. The reaction is initiated by adding 20 μl of solution containing 2 μg of GST-PLC, 2 μM of cold ATP and 1 μCi of ^33P[ATP]. After incubation for 1 hour at 37° C., the reaction is stopped by adding 1 volume (100 μl) of 200 mM EDTA. After removal of the incubation buffer, the wells are washed three times with 300 μl of PBS. The radioactivity is measured on a Wallac MicroBeta 1450.
The inhibition of the Tie2 activity is calculated and expressed as percentage inhibition with respect to the control activity determined in the absence of compound.

human KDR enzyme = target: T2, human KDR enzyme (Homo sapiens, UniProt P35968); assay: KDR kinase inhibition: phosphorylation of PLCγ SH2-SH3 substrate by KDR enzyme, 33P-ATP scintillation plate; type: biochemical
T2 construct: The cytoplasmic domain of the human KDR enzyme was cloned in GST fusion form; GST; made in house; host or cells: SF21 insect cells (baculovirus, pFastBac)
T2 sequence (P35968 786-1356 limits assumed): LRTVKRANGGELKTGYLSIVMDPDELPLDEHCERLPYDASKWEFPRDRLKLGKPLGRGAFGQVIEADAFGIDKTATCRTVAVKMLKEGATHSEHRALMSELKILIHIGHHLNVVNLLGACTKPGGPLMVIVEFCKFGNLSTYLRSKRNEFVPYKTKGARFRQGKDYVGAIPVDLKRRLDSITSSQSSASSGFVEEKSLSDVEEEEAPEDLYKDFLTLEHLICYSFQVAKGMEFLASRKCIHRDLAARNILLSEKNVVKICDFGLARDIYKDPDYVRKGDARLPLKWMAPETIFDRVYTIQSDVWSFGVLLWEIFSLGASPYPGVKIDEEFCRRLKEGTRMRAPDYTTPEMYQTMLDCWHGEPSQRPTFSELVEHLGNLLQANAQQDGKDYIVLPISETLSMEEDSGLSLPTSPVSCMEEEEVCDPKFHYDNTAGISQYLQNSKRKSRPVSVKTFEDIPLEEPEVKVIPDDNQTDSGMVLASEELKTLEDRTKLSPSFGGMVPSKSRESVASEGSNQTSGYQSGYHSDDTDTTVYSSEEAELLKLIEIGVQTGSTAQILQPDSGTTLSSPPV
Description: The inhibitory effect of the compounds is determined in an assay for phosphorylation of substrate by the KDR enzyme in vitro using a scintillation technique (96-well plate, NEN).
The cytoplasmic domain of the human KDR enzyme was cloned in GST fusion form into the baculovirus expression vector pFastBac. The protein was expressed in SF21 cells and purified to approximately 60% homogeneity. The KDR kinase activity is measured in 20 mM MOPS, 10 mM MgCl2, 10 mM MnCl2, 1 mM DTT, 2.5 mM EGTA, 10 mM b-glycerophosphate, pH=7.2, in the presence of 10 mM MgCl2, 100 μM Na3VO4 and 1 mM NaF. 10 μl of the compound are added to 70 μl of kinase buffer containing 100 ng of KDR enzyme at 4° C. The reaction is initiated by adding 20 μl of solution containing 2 μg of substrate (SH2-SH3 fragment of PLCγ expressed in the form of an GST fusion protein), 2 μCi γ ^33P[ATP] and 2 μM cold ATP. After incubation for 1 hour at 37° C., the reaction is stopped by adding 1 volume (100 μl) of 200 mM EDTA. The incubation buffer is removed and the wells are washed three times with 300 μl of PBS. The radioactivity is measured in each well using a Top Count NXT (Packard) radioactivity counter.
The background noise is determined by measuring the radioactivity in four different wells containing the radioactive ATP and the substrate alone.
A total activity control is measured in four different wells containing all the reagents (γ^33P-[ATP], KDR and PLC-γ substrate) but in the absence of compound.
The inhibition of the KDR activity with the compound of the invention is expressed as percentage inhibition of the control activity determined in the absence of compound.
The compound SU5614 (Calbiochem) (1 μM) is included in each plate as inhibition control.

[1] = Assay 1, read-out: Tie2 % Inhib at 10 μM (FRX) Assay 1
[2] = Assay 2, read-out: Tie2 % Inhib at 10 μM (FRX) Assay 2
[3] = Assay 1, read-out: KDR % Inhib at 10 μM Assay 1
[4] = Assay 2, read-out: KDR % Inhib at 10 μM Assay 2

Structure (SMILES)	inhibition at 10 µM (human Tie2; read-out: Tie2 % Inhib. 10 μM) [%]	inhibition at 10 µM (human KDR enzyme; read-out: KDR % Inhib. 10 μM) [%]	other results
Cc1cc2nc(-c3[nH]nc4c3CCN(C(=O)c3ccccc3Cl)C4)[nH]c2cc1C [Chemistry 46]	96.7	73	
Cc1cc2nc(-c3[nH]nc4c3CCN(C(=O)c3cccc(Cl)c3)C4)[nH]c2cc1C [Chemistry 47]	87.7	78.5	
Cc1cc2nc(-c3[nH]nc4c3CCN(C(=O)c3ccc(Cl)cc3)C4)[nH]c2cc1C [Chemistry 48]	83.8	42	
Cc1cc2nc(-c3[nH]nc4c3CCN(C(=O)CCc3ccccc3)C4)[nH]c2cc1C [Chemistry 50]	82.4	74.8	
Cc1cc2nc(-c3[nH]nc4c3CCN(C(=O)c3ccc(S(C)(=O)=O)cc3)C4)[nH]c2cc1C [Chemistry 58]	82.3	27.9	
Cc1cc2nc(-c3[nH]nc4c3CCN(C(=O)Nc3ccccc3)C4)[nH]c2cc1C [Chemistry 59]	33.2	17.6	
Cc1cc2nc(-c3[nH]nc4c3CCN(C(=O)Nc3ccccc3Cl)C4)[nH]c2cc1C [Chemistry 61]	3.75	12.7	
Cc1cc2nc(-c3[nH]nc4c3CCN(C(=O)Nc3cccc(Cl)c3)C4)[nH]c2cc1C [Chemistry 62]	21	12.8	
Cc1cc2nc(-c3[nH]nc4c3CCN(C(=O)Nc3ccc(Cl)cc3)C4)[nH]c2cc1C [Chemistry 63]	23.8	-0.3	
COc1ccccc1NC(=O)N1CCc2c(n[nH]c2-c2nc3cc(C)c(C)cc3[nH]2)C1 [Chemistry 67]	18.1	8.1	
Cc1cc2nc(-c3[nH]nc4c3CCN(C(=O)Nc3ccccc3C)C4)[nH]c2cc1C [Chemistry 68]	19.1	19.5	
O=C(c1cccnc1)N1CCc2c(n[nH]c2-c2nc3ccccc3[nH]2)C1 [Chemistry 69]	59.3	18.6	
Clc1cccc(CN2CCc3c(n[nH]c3-c3nc4ccccc4[nH]3)C2)c1 [Chemistry 70]	65.5	92.1	
Cc1cc2nc(-c3[nH]nc4c3CCN(C(=O)c3ccccc3Nc3cccc(Cl)c3C)C4)[nH]c2cc1C [Example P-31375-112-10]			inhibition at 10 µM (human Tie2; [1]): 90.6%; inhibition at 10 µM (human Tie2; [2]): 87.9%; inhibition at 10 µM (human KDR enzyme; [3]): 42.3%; inhibition at 10 µM (human KDR enzyme; [4]): 28.7%
Cc1cc2nc(-c3[nH]nc4c3CCN(C(=O)c3ccccc3Nc3ccccc3)C4)[nH]c2cc1C [Example P-31378-112-1]			inhibition at 10 µM (human Tie2; [1]): 83.1%; inhibition at 10 µM (human Tie2; [2]): 88.1%; inhibition at 10 µM (human KDR enzyme; [3]): 96.5%; inhibition at 10 µM (human KDR enzyme; [4]): 96.7%
Cc1cc2nc(-c3[nH]nc4c3CCN(C(=O)c3ccccc3Nc3ccccc3)C4)[nH]c2cc1C [Example P-31378-112-2]			Tie2 % Inhib at 10 μM (FRX) Assay 1 (human Tie2): 92.6%; Tie2 % Inhib at 10 μM (FRX) Assay 2 (human Tie2): 92.6%; KDR % Inhib at 10 μM Assay 1 (human KDR enzyme): 98.1%; KDR % Inhib at 10 μM Assay 2 (human KDR enzyme): 97.4%
Cc1cc2nc(-c3[nH]nc4c3CCN(C(=O)c3ccccc3Nc3cccc(C(F)(F)F)c3)C4)[nH]c2cc1C [Example P-31378-112-3]			Tie2 % Inhib at 10 μM (FRX) Assay 1 (human Tie2): 78.7%; Tie2 % Inhib at 10 μM (FRX) Assay 2 (human Tie2): 79.1%; KDR % Inhib at 10 μM Assay 1 (human KDR enzyme): 59.0%; KDR % Inhib at 10 μM Assay 2 (human KDR enzyme): 56.5%
Cc1cc2nc(-c3[nH]nc4c3CCN(C(=O)c3ccccc3Nc3cccc(C(F)(F)F)c3)C4)[nH]c2cc1C [Example P-31378-112-4]			inhibition at 10 µM (human Tie2; [1]): 83.1%; inhibition at 10 µM (human Tie2; [2]): 87.2%; inhibition at 10 µM (human KDR enzyme; [3]): 56.2%; inhibition at 10 µM (human KDR enzyme; [4]): 50.1%
Cc1cc2nc(-c3[nH]nc4c3CCN(C(=O)c3ccccc3Oc3ccccc3)C4)[nH]c2cc1C [Example P-31378-112-5]			inhibition at 10 µM (human Tie2; [1]): 87.1%; inhibition at 10 µM (human Tie2; [2]): 86.4%; inhibition at 10 µM (human KDR enzyme; [3]): 94.7%; inhibition at 10 µM (human KDR enzyme; [4]): 95.4%
Cc1cc2nc(-c3[nH]nc4c3CCN(C(=O)c3ccccc3Cc3ccccc3)C4)[nH]c2cc1C [Example P-31378-112-6]			inhibition at 10 µM (human Tie2; [1]): 92.7%; inhibition at 10 µM (human Tie2; [2]): 93.8%; inhibition at 10 µM (human KDR enzyme; [3]): 71.4%; inhibition at 10 µM (human KDR enzyme; [4]): 68%
Cc1cc2nc(-c3[nH]nc4c3CCN(C(=O)c3ccccc3CCc3ccccc3)C4)[nH]c2cc1C [Example P-31378-112-7]			inhibition at 10 µM (human Tie2; [1]): 92.7%; inhibition at 10 µM (human Tie2; [2]): 92%; inhibition at 10 µM (human KDR enzyme; [3]): 68.6%; inhibition at 10 µM (human KDR enzyme; [4]): 64.3%
Cc1cc2nc(-c3[nH]nc4c3CCN(C(=O)c3ccccc3NCc3ccccc3)C4)[nH]c2cc1C [Example P-31378-112-8]			inhibition at 10 µM (human Tie2; [1]): 87.8%; inhibition at 10 µM (human Tie2; [2]): 93.3%; inhibition at 10 µM (human KDR enzyme; [3]): 86.8%; inhibition at 10 µM (human KDR enzyme; [4]): 89%
Cc1cc2nc(-c3[nH]nc4c3CCN(C(=O)c3ccccc3OCc3ccccc3)C4)[nH]c2cc1C [Example P-31378-112-9]			inhibition at 10 µM (human Tie2; [1]): 82.6%; inhibition at 10 µM (human Tie2; [2]): 85.9%; inhibition at 10 µM (human KDR enzyme; [3]): 53.2%; inhibition at 10 µM (human KDR enzyme; [4]): 45.1%
Cc1cc2c(cc1C)NC(c1[nH]nc3c1CCN(C(=O)c1ccc(C)c([N+](=O)[O-])c1)C3)N2 [Example P-31378-112-14]			inhibition at 10 µM (human Tie2; [1]): 69.7%; inhibition at 10 µM (human Tie2; [2]): 73.8%; inhibition at 10 µM (human KDR enzyme; [3]): 19.5%; inhibition at 10 µM (human KDR enzyme; [4]): 13%

Second part, led by results:

inhibition at 10 µM (human Tie2; read-out: Tie2 % Inhib. 10 μM) [%]	inhibition at 10 µM (human KDR enzyme; read-out: KDR % Inhib. 10 μM) [%]	Structure (SMILES)	other results
94.1	33.4	Cc1cc2nc(-c3[nH]nc4c3CCN(C(=O)C3CC3)C4)[nH]c2cc1C [Chemistry 45]	
84.8	12.2	Cc1cc2nc(-c3[nH]nc4c3CCN(C(=O)CC(C)C)C4)[nH]c2cc1C [Chemistry 49]	
72.9	38.7	C=CCC(=O)N1CCc2c(n[nH]c2-c2nc3cc(C)c(C)cc3[nH]2)C1 [Chemistry 51]	
89.3	29.4	CCCC(=O)N1CCc2c(n[nH]c2-c2nc3cc(C)c(C)cc3[nH]2)C1 [Chemistry 52]	
92.7	74.5	Cc1cc2nc(-c3[nH]nc4c3CCN(C(=O)c3ccco3)C4)[nH]c2cc1C [Chemistry 53]	
81.3	11.2	Cc1cc2nc(-c3[nH]nc4c3CCN(C(=O)C(C)(C)C)C4)[nH]c2cc1C [Chemistry 54]	
65.4	15.9	Cc1cc2nc(-c3[nH]nc4c3CCN(C(=O)CN(C)C)C4)[nH]c2cc1C [Chemistry 55]	
92.5	46.6	CCCCC(=O)N1CCc2c(n[nH]c2-c2nc3cc(C)c(C)cc3[nH]2)C1 [Chemistry 56]	
94.6	75.2	Cc1cc2nc(-c3[nH]nc4c3CCN(C(=O)c3cccs3)C4)[nH]c2cc1C [Chemistry 57]	
64.8	33.5	Cc1cc2nc(-c3[nH]nc4c3CCN(C(=O)NCc3ccccc3)C4)[nH]c2cc1C [Chemistry 60]	
38.5	18	CCCCNC(=O)N1CCc2c(n[nH]c2-c2nc3cc(C)c(C)cc3[nH]2)C1 [Chemistry 64]	
85.9	63.3	Cc1cc2nc(-c3[nH]nc4c3CCN(C(=O)Nc3cccs3)C4)[nH]c2cc1C [Chemistry 65]	
